Consider 55 compounds from ChEMBL document CHEMBL3045881, “(Hetero)aroyl esters of 2-(N-phthalimido)ethanol and analogues: parallel synthesis, anti-HIV-1 activity and cytotoxicity” (Med Chem Res, 2010).

Each structure is given as a SMILES string. pEC50: −log10 of the molar value. Calls of active or inactive are those of the source. The calls are words filed in the database; no cut-off is given here.

Data set [1] in a line: Cytotoxicity against mock infected Homo sapiens (human) MT4 cells assessed as cell viability by MTT assay. The format is cell-based. (In general: Formazan colour is commonly taken as a measure of viable cells.)
The test system of data set [2] is Human immunodeficiency virus 1. In words: Antiviral activity against wild type Human immunodeficiency virus 1 infected human MT4 cells assessed as inhibition of virus-induced cytopathic effect after 4 days by MTT assay. It counts as functional, organism-based. The following applies: Human immunodeficiency virus 1, MT4, 96 h. For orientation: Cytopathic effects are the visible damage that an infection or toxin causes in cultured cells.

The subject of data set [3] is Human immunodeficiency virus 1. Briefly: Antiviral activity against Human immunodeficiency virus 1 harboring reverse transcriptase Y181C mutant infected human MT4 assessed as inhibition of virus-induced cytopathic effect after 4 days by MTT assay. It counts as functional, organism-based. The following applies: Human immunodeficiency virus 1, 96 h.
Data set [4] has as its system Human immunodeficiency virus 1. In words: Antiviral activity against efavirenz-resistant Human immunodeficiency virus 1 harboring reverse transcriptase K103R, V179D, P225H triple mutant infected human MT4 assessed as inhibition of virus-induced cytopathic effect after 4 days by MTT assay. The format is functional, organism-based.
Data set [5] concerns Human immunodeficiency virus 1. Briefly: Antiviral activity against Human immunodeficiency virus 1 harboring reverse transcriptase K103N, Y181C double mutant infected human MT4 assessed as inhibition of virus-induced cytopathic effect after 4 days by MTT assay. It counts as functional, organism-based.

Take `CC(CN1C(=O)c2ccccc2C1=O)OC(=O)c1ccc(Cl)c([N+](=O)[O-])c1` (racemic): in data set [1], the CC50 (commonly the concentration that lowers cell viability or growth by half) was found to be 34 µM. Besides, the pEC50 (in general, the EC50 on a negative log10 scale, so that one unit is a factor of ten) in data set [2] was below 4.47.

Consider `O=C(OCCN1C(=O)c2ccccc2C1=O)c1cc(Cl)ccc1F`, for which the CC50 in data set [1] is above 100 µM. Besides, in data set [2], the pEC50 is below 4.00.

For the compound `O=C(OCCCN1C(=O)c2ccccc2C1=O)c1cc(F)ccc1F`, the CC50 in data set [1] is above 100 µM. Also, the pEC50 in data set [2] was below 4.00.

In the case of `O=C(OC1Cc2cccc3cccc1c23)c1ccc(Cl)c([N+](=O)[O-])c1` (racemic), the CC50 in data set [1] is 1.6 µM. The pEC50 in data set [2] is below 4.00.

Take `O=C(OCCN1C(=O)[C@H]2CCCC[C@H]2C1=O)c1ccc(Cl)c([N+](=O)[O-])c1`: the CC50 in data set [1] was determined as 28 µM. Besides, the pEC50 in data set [2] was below 4.55.

For `Cc1cc(C(=O)OCCN2C(=O)c3ccccc3C2=O)ccc1Br`, the CC50 in data set [1] is above 100 µM. The pEC50 in data set [2] was 4.22.

As to `O=C(OCCN1C(=O)[C@H]2CC=CC[C@H]2C1=O)c1cc(F)ccc1F`, in data set [1], the CC50 is above 100 µM. For the same compound, the pEC50 in data set [2] is below 4.00.

For the compound `O=C(OCCN1C(=O)c2ccccc2C1=O)c1cccc(F)c1F`, the CC50 in data set [1] is above 100 µM. Further, the pEC50 in data set [2] is below 4.00.

Take `O=C(OCCN1C(=O)c2ccccc2C1=O)c1cccc(Cl)c1`: the CC50 in data set [1] was above 100 µM. For the same compound, the pEC50 in data set [2] was 4.03.

`O=C(OCCN1C(=O)c2ccccc2C1=O)c1cc(F)cc(F)c1`: in data set [1], the CC50 was above 100 µM. For the same compound, in data set [2], the pEC50 was below 4.00.

Take `Cc1cccc(C(=O)OCCN2C(=O)c3ccccc3C2=O)c1`: in data set [1], the CC50 was above 100 µM. In data set [2], the pEC50 is 4.09.

For the compound `O=C(OCCN1C(=O)c2ccccc2C1=O)c1cc(Cl)cc(Cl)c1`, the half-maximal cytotoxic concentration (CC50) in data set [1] was above 100 µM. For the same compound, in data set [2], the pEC50 is 4.57.

`Cc1ccc2c(c1)C(=O)N(CCOC(=O)c1cc(F)ccc1F)C2=O`: in data set [1], the CC50 is above 100 µM. Besides, the pEC50 in data set [2] is below 4.00.

As to `O=C(OCCN1C(=O)c2ccccc2C1=O)c1cc(F)ccc1Br`, the pEC50 in data set [3] is 4.05; in data set [2], 4.46. Besides, the cytotoxic concentration (CC50) in data set [1] was above 100 µM. The outcome in data set [4] and in data set [5] was inactive.

Regarding `O=C(OCCN1C(=O)c2ccccc2C1=O)c1ccc([N+](=O)[O-])cc1Cl`, in data set [1], the CC50 was above 100 µM. The pEC50 in data set [2] was 4.82.

Regarding `Cc1ccc2c(c1)C(=O)N(CCOC(=O)c1ccc(Cl)c([N+](=O)[O-])c1)C2=O`, the CC50 in data set [1] was 81 µM. Further, the pEC50 in data set [2] is below 4.09.

Turning to `Cc1ccc(F)cc1C(=O)OCCN1C(=O)c2ccccc2C1=O`, the CC50 in data set [1] is above 100 µM. In data set [2], the pEC50 was 4.33.

For `O=C(OCCN1C(=O)c2ccccc2C1=O)c1ccccc1`, in data set [1], the CC50 is above 100 µM. Moreover, in data set [2], the pEC50 is 4.26.

As to `O=C(OCCN1C(=O)c2ccccc2C1=O)c1cc(C(F)(F)F)ccc1F`, the CC50 in data set [1] was above 100 µM. In addition, the pEC50 in data set [2] is below 4.00.

With `Cc1cc(C(=O)OC2Cc3cccc4cccc2c34)ccc1Br` (racemic), the CC50 in data set [1] turned out to be 8 µM. In addition, the pEC50 in data set [2] was below 4.00.

In the case of `O=C(OCCN1C(=O)c2ccccc2C1=O)c1ccc2ccccc2c1`, the CC50 in data set [1] is above 100 µM. Besides, the pEC50 in data set [2] is below 4.00.

As for `O=C(OCCN1C(=O)[C@H]2CCCC[C@H]2C1=O)c1cc(F)ccc1F`, the CC50 in data set [1] is above 100 µM. The negative logarithm of the EC50 (pEC50) in data set [2] was below 4.00.

Consider `O=C(OCCN1C(=O)c2ccccc2C1=O)c1cc(F)ccc1Cl`, for which, in data set [1], the CC50 is above 100 µM. For the same compound, the pEC50 in data set [2] was below 4.00.

For `CCC(C(=O)OCCN1C(=O)c2ccccc2C1=O)c1ccccc1` (racemic), the CC50 in data set [1] was above 100 µM. The pEC50 in data set [2] was 4.80.

Turning to `O=C(OCCN1C(=O)c2ccccc2C1=O)c1ccccc1[N+](=O)[O-]`, the CC50 in data set [1] was above 100 µM. Also, in data set [2], the pEC50 was 4.10.

As for `O=C(OCCN1C(=O)c2ccccc2C1=O)c1c(F)cccc1F`, the CC50 in data set [1] was above 100 µM. Also, the pEC50 in data set [2] was 4.31.

As for `CC(COC(=O)c1cc(F)ccc1F)N1C(=O)c2ccccc2C1=O` (racemic), the CC50 in data set [1] was above 100 µM. Further, the pEC50 in data set [2] was below 4.00.

`O=C(/C=C/c1ccccc1)OCCN1C(=O)c2ccccc2C1=O`: the CC50 in data set [1] was above 100 µM. Besides, the pEC50 in data set [2] was 4.30.

Regarding `O=C(OCN1C(=O)c2ccccc2C1=O)c1ccc(Cl)c([N+](=O)[O-])c1`, the CC50 in data set [1] was 11 µM. Besides, the pEC50 in data set [2] was below 4.96.

Take `O=C(OCCS(=O)(=O)c1ccccc1)c1ccc(Cl)c(Cl)c1`: in data set [1], the CC50 stood at 19 µM. Besides, the pEC50 in data set [2] was below 4.72.

With `CCCCCc1ccc(C(=O)OCCN2C(=O)c3ccccc3C2=O)cc1`, the CC50 in data set [1] is above 100 µM. For the same compound, in data set [2], the pEC50 was 4.85.

`O=C(OCCOc1ccc(Br)cc1)c1ccc(Cl)c([N+](=O)[O-])c1`: the CC50 in data set [1] was determined as 59 µM. Also, the pEC50 in data set [2] is below 4.23.

Turning to `O=C(OCCN1C(=O)c2ccccc2C1=O)c1ccc(Cl)c(Cl)c1`, the CC50 in data set [1] is above 100 µM. In data set [2], the negative logarithm of the EC50 (pEC50) was 6.15.

Consider `O=C(OCCN1C(=O)c2ccccc2C1=O)c1cc([N+](=O)[O-])ccc1F`, for which the CC50 in data set [1] was above 100 µM. Besides, the pEC50 in data set [2] was below 4.00.

In the case of `O=C(OCCN1C(=O)[C@H]2CC=CC[C@H]2C1=O)c1ccc(Cl)c([N+](=O)[O-])c1`, in data set [1], the CC50 was found to be 36 µM. Further, the pEC50 in data set [2] is below 4.44.

`O=C(OCCN1C(=O)c2ccccc2C1=O)c1cc(F)ccc1F`: the CC50 in data set [1] is above 100 µM. Moreover, in data set [2], the pEC50 is 6.70.

`O=C(OCN1C(=O)c2ccccc2C1=O)c1cc(F)ccc1F`: the cytotoxic concentration (CC50) in data set [1] was above 100 µM. Besides, the pEC50 in data set [2] is below 4.00.

As to `O=C(OCCN1C(=O)c2ccccc2C1=O)c1cc([N+](=O)[O-])ccc1Cl`, the CC50 in data set [1] came out at 30 µM. Besides, the pEC50 in data set [2] was below 4.52.

Turning to `O=C(OCCN1C(=O)c2ccccc2C1=O)c1ccc(Br)cc1`, the CC50 in data set [1] was above 100 µM. The pEC50 in data set [2] was below 4.00.

Consider `O=C(OCCN1C(=O)c2ccccc2C1=O)c1cccnc1Cl`, for which the CC50 in data set [1] is above 100 µM. Besides, the pEC50 in data set [2] is below 4.00.

As to `O=C(OCCN1C(=O)c2ccccc2C1=O)c1ccccc1Cl`, the CC50 in data set [1] was above 100 µM. Besides, the negative logarithm of the EC50 (pEC50) in data set [2] was 4.10.

Regarding `Cc1cc(C(=O)OCCN2C(=O)c3ccccc3C2=O)c(C)o1`, the CC50 in data set [1] is above 100 µM. In addition, the pEC50 in data set [2] was 4.55.

As for `O=C(OCCN1C(=O)c2ccccc2C1=O)c1ccc(Cl)c([N+](=O)[O-])c1`, the CC50 in data set [1] is above 100 µM. In addition, the pEC50 in data set [2] is 6.15.

On to `CC(CN1C(=O)c2ccccc2C1=O)OC(=O)c1cc(F)ccc1F` (racemic), for which the CC50 in data set [1] was above 100 µM. In data set [2], the pEC50 was below 4.00.

Take `O=C(OCCN1C(=O)c2ccccc2C1=O)c1ccc(F)cc1F`: the CC50 in data set [1] was above 100 µM. For the same compound, the pEC50 in data set [2] was below 4.00.

Take `O=C(OCCc1c[nH]c2ccccc12)c1ccc(Cl)c([N+](=O)[O-])c1`: the CC50 in data set [1] amounted to 6 µM. In data set [2], the pEC50 was below 5.22.

On to `O=C(OCCN1C(=O)c2ccccc2C1=O)c1cccc([N+](=O)[O-])c1`, for which the CC50 in data set [1] was above 100 µM. For the same compound, in data set [2], the pEC50 is 4.16.

`O=C(OCCN1C(=O)c2ccccc2C1=O)c1cccc(F)c1`: in data set [1], the CC50 is above 100 µM. The pEC50 in data set [2] was 4.12.

`CC(C)(C)c1ccc(C(=O)OCCN2C(=O)c3ccccc3C2=O)cc1`: in data set [1], the CC50 turned out to be 92 µM. The pEC50 in data set [2] was below 4.04.

On to `CC(C)(C)c1ccc2c(c1)C(=O)N(CCOC(=O)c1cc(F)ccc1F)C2=O`, for which, in data set [1], the CC50 was above 100 µM. For the same compound, the pEC50 in data set [2] is below 4.00.

As to `O=C(OCCOc1ccc([N+](=O)[O-])cc1)c1ccc(Cl)c([N+](=O)[O-])c1`, the CC50 in data set [1] is 47 µM. Moreover, the pEC50 in data set [2] is below 4.33.

In the case of `O=C(OCCN1C(=O)c2ccccc2C1=O)c1ccc(F)c(F)c1`, the CC50 in data set [1] was above 100 µM. In addition, the negative logarithm of the EC50 (pEC50) in data set [2] is below 4.00.

Turning to `O=C(OCCCN1C(=O)c2ccccc2C1=O)c1ccc(Cl)c([N+](=O)[O-])c1`, the CC50 in data set [1] was above 100 µM. Moreover, the pEC50 in data set [2] was below 4.00.

As to `O=C(OC1Cc2cccc3cccc1c23)c1ccc(Cl)c(Cl)c1` (racemic), the CC50 in data set [1] was determined as 42 µM. In data set [2], the pEC50 is below 4.00.

For `O=C(OCCN1C(=O)c2ccccc2C1=O)c1ccc(Cl)nc1`, in data set [1], the CC50 was above 100 µM. In addition, in data set [2], the pEC50 was below 4.00.
